Key:
Assay type in all cases: in vivo
[1] = tested on: CAPBP (Capsella bursa-pastoris, Shepherd's purse); test: Field trial, post-emergence directed dormant application (December), California vineyards: visual weed control
Description: (§1) As used herein, selective pre- and post-emergence control of undesirable vegetation means preventing, reducing, killing, or otherwise adversely modifying the development of the undesirable vegetation in the presence of crop plants with limited adverse effect on the crop plants. For example, a broadleaf weed control of 80% (rated visually) with crop injury of less than or equal to 20% (rated visually) would constitute selective control. In some embodiments the adverse effect on crop plants is limited to less than 10% visually rated crop injury. Visual crop injury is a composite rating accounting for all phytotoxic effects including chlorosis, necrosis, growth inhibition, epinasty, delays in maturity and seed or fruit deformity. Visual weed control is a composite rating accounting for reductions in pest plant biomass and/or stand reduction.
(§2) Small plot research experiments were conducted in Fresno, Calif., USA to evaluate the pre-emergence and post-emergence herbicidal weed control activity and the vines crop tolerance to pre-emergence and post-emergence application of Compound I and Compound II to the weeds. Application water volume of 100 to 187 liters per hectare (L/ha) was used for all experiments. All treatments were applied with a standard small plot carbon dioxide (CO2) backpack sprayer. All treatments were tank-mixed with Crop Oil Concentrate (COC), a well known adjuvant, at 2.34 L/ha. Experimental emulsifiable concentrate (EC) formulations were used for Compounds I and II. The dimethylammonium (DMA) salt of glyphosate was used in all trials. Pindar® GT is a commercial formulation containing a pre-mix of penoxsulam+oxyfluorfen (10+476 grams of active ingredient per liter (g ai/L), respectively). Vine crop stage was dormant (no leaves on the vines during the winter) or early spring growth at the time of Compound I or Compound II application. Generally, weeds were not emerged for the pre-emergence treatments or were at the two to six-leaf stage at the time of the post-emergence herbicide application.
(§3) Tables 1, 2 and 6 provide weed control results from pre-emergence applications of Compounds I and/or II prior to weed emergence; Tables 4, 7 and 8 provide weed control results from post-emergence applications of Compounds I and/or II applied to actively growing weeds; Tables 3 and 5 provide vine response data from pre-emergence and post-emergence applications of Compound I respectively.

[2] = tested on: AMSIN (Amsinckia intermedia, coast fiddleneck); test: as above
Description: as §1, §2, §3

[3] = tested on: AMARE (Amaranthus retroflexus, redroot pigweed); test: as above
Description: as §1, §2, §3

[4] = tested on: CHEAL (Chenopodium album, common lambsquarters); test: as above
Description: as §1, §2, §3

[5] = tested on: IPOSS (Ipomoea spp, morningglory); test: as above
Description: as §1, §2, §3

[6] = tested on: POAAN (Poa annua, annual bluegrass); test: Field trial, pre-emergence dormant application (December), California vineyards: visual weed control; conditions: applied prior to weed emergence
Description: as §1, §2, §3

[7] = tested on: HORMU (Hordeum murinam, wall barley); test: as above; conditions: applied prior to weed emergence
Description: as §1, §2, §3

[8] = tested on: PANCA (Panicum capillare, witchgrass); test: as above; conditions: applied prior to weed emergence
Description: as §1, §2, §3

**Q.** With `COC(=O)c1nc(-c2ccc(Cl)c(OC)c2F)cc(N)c1Cl` [I—Me, methyl 4-amino-3-chloro-6-(4-chloro-2-fluoro-3-methoxyphenyl)pyridine-2-carboxylate] as the compound, how does the “% Visual Control 57 DAA CAPBP” value ([1]; 2.5 g ae/ha) read?
**A.** 91.7%

**Q.** What about the “% Visual Control 57 DAA CAPBP” value ([1]; 5 g ae/ha) of the same compound?
**A.** 99.3%

**Q.** What about the “% Visual Control 57 DAA CAPBP” value ([1]; 10 g ae/ha) of the same compound?
**A.** 100%

**Q.** And the “% Visual Control 57 DAA AMSIN” value ([2]; 2.5 g ae/ha)?
**A.** 38.3%

**Q.** What about the “% Visual Control 57 DAA AMSIN” value ([2]; 5 g ae/ha) of the same compound?
**A.** 76.7%

**Q.** And the “% Visual Control 57 DAA AMSIN” value ([2]; 10 g ae/ha)?
**A.** 97.3%

**Q.** What about the “% Visual Control 57 DAA AMARE” value ([3]; 2.5 g ae/ha) of the same compound?
**A.** 95%

**Q.** And the “% Visual Control 57 DAA AMARE” value ([3]; 5 g ae/ha)?
**A.** 96.7%

**Q.** What about the “% Visual Control 57 DAA AMARE” value ([3]; 10 g ae/ha) of the same compound?
**A.** 100%

**Q.** What about the “% Visual Control 57 DAA CHEAL” value ([4]; 2.5 g ae/ha) of the same compound?
**A.** 100%

**Q.** And the “% Visual Control 57 DAA CHEAL” value ([4]; 5 g ae/ha)?
**A.** 96.7%

**Q.** What about the “% Visual Control 57 DAA CHEAL” value ([4]; 10 g ae/ha) of the same compound?
**A.** 100%

**Q.** And the “% Visual Control 57 DAA IPOSS” value ([5]; 2.5 g ae/ha)?
**A.** 57.8%

**Q.** What about the “% Visual Control 57 DAA IPOSS” value ([5]; 5 g ae/ha) of the same compound?
**A.** 65%

**Q.** What about the “% Visual Control 57 DAA IPOSS” value ([5]; 10 g ae/ha) of the same compound?
**A.** 66.7%

**Q.** And the “% Visual Control 90 DAA POAAN” value ([6]; 10 g ae/ha)?
**A.** 58%

**Q.** What about the “% Visual Control 184 DAA POAAN” value ([6]; 10 g ae/ha) of the same compound?
**A.** 48%

**Q.** And the “% Visual Control 90 DAA POAAN” value ([6]; 20 g ae/ha)?
**A.** 65%

**Q.** And the “% Visual Control 184 DAA POAAN” value ([6]; 20 g ae/ha)?
**A.** 28%

**Q.** And the “% Visual Control 90 DAA POAAN” value ([6]; 40 g ae/ha)?
**A.** 63%

**Q.** What about the “% Visual Control 184 DAA POAAN” value ([6]; 40 g ae/ha) of the same compound?
**A.** 47%

**Q.** What about the “% Visual Control 90 DAA HORMU” value ([7]; 10 g ae/ha) of the same compound?
**A.** 100%

**Q.** And the “% Visual Control 184 DAA HORMU” value ([7]; 10 g ae/ha)?
**A.** 90%

**Q.** And the “% Visual Control 90 DAA HORMU” value ([7]; 20 g ae/ha)?
**A.** 100%

**Q.** And the “% Visual Control 184 DAA HORMU” value ([7]; 20 g ae/ha)?
**A.** 88%

**Q.** What about the “% Visual Control 90 DAA HORMU” value ([7]; 40 g ae/ha) of the same compound?
**A.** 100%

**Q.** What about the “% Visual Control 184 DAA HORMU” value ([7]; 40 g ae/ha) of the same compound?
**A.** 92%

**Q.** What about the “% Visual Control 184 DAA PANCA” value ([8]; 10 g ae/ha) of the same compound?
**A.** 60%

**Q.** And the “% Visual Control 184 DAA PANCA” value ([8]; 20 g ae/ha)?
**A.** 33.3%

**Q.** What about the “% Visual Control 184 DAA PANCA” value ([8]; 40 g ae/ha) of the same compound?
**A.** 63.3%

From patent US20220039384A1, “SELECTIVE WEED CONTROL WITH HALAUXIFEN OR 4-AMINO-3-CHLORO-5-FLUORO-6-(4-CHLORO-2-FLUORO-3-METHOXYPHENYL) PYRIDINE-2-CARBOXYLIC ACID OR DERIVATIVES THEREOF IN VINEYARDS OR PERENNIAL CROPS” (Corteva Agriscience LLC, priority 2013, published 2022)
